Data from patent publication US9737073B2, “Herbicidal weed control from combinations of fluroxypyr and ALS inhibitors” (Dow AgroSciences LLC, priority 2014, dated 2017).

How the values were obtained:
Assay type in all cases: in vivo
[1] = tested on: Amaranthus rudis Sauer (common waterhemp, AMATA); assay: Postemergence herbicidal weed control, fluroxypyr-meptyl and diclosulam, greenhouse trials (Table 1)
Experimental: (§1) Seeds of the desired test plant species were planted in a peat-based potting soil, Metro-Mix 360® in plastic pots with a surface area of 128 square centimeters (cm^2). Metro-Mix 360® consists of formulated Canadian sphagnum peat moss, coarse perlite, bark ash, a starter nutrient charge (with gypsum), a slow-release nitrogen and dolomitic limestone. The plants were grown for 7-19 days in a greenhouse with an approximate 14-hour (h) photoperiod which was maintained at about 29° C. during the day and 26° C. during the night. Nutrients and water were added on a regular basis and supplemental lighting was provided with overhead metal halide 1000-Watt lamps as necessary. The plants were treated with postemergence foliar applications when they reached the third to fourth true leaf stage. All treatments were applied using a randomized complete block trial design, with 4 replications per treatment.
(§2) Treatments consisted of the compounds as listed in Tables 1 to 4, each compound applied alone and in combination. Commercially formulated products of fluroxypyr-meptyl (STARANE™, 333 grams acid equivalent per liter (g ae/L) EC), diclosulam (SPIDER® 84WG), cloransulam-methyl (FIRSTRATE™ 84WG), chlorimuron-ethyl (CLASSIC® 25WG) and thifensulfuron-methyl (HARMONY® 50SG). Formulated amounts of fluroxypyr-meptyl, diclosulam, cloransulam-methyl, chlorimuron-ethyl and thifensulfuron-methyl were placed in 60 milliliter (mL) glass vials and dissolved in a volume of 30 or 60 mL of a water solution containing Agri-dex crop oil concentrate in a 1% volume per volume (v/v) ratio. Compound requirements are based upon either a 30- or a 60-mL application volume at a rate of 200 liters per hectare (L/ha). Spray solutions of the mixtures were prepared by adding the stock solutions to the appropriate amount of dilution solution to form either a 30- or a 60-mL spray solution with active ingredients in single and two-way combinations. Formulated compounds were applied to the plant material with an overhead Generation III Research Sprayer manufactured by DeVries Manufacturing in Hollandale, Minn., USA. The track sprayer was equipped with an 8003E nozzle calibrated to deliver 200 L/ha at a spray height of 18 inches (43 centimeters (cm)) above average plant canopy.
(§3) The treated plants and untreated control plants were placed in a greenhouse as described above and watered by sub-irrigation to prevent wash-off of the test compounds.
(§4) Treatments were rated at 7 to 21 days after application (DAA) as compared to the untreated control plants. Visual weed control was scored on a scale of 0 to 100 percent where 0 corresponds to no injury and 100 corresponds to complete kill.
(§5) Colby's equation was used to determine the herbicidal effects expected from the mixtures (Colby, S. R. Calculation of the synergistic and antagonistic response of herbicide combinations. Weeds 196715, 20-22). A t-test (alpha=0.05) between Colby predictions and observed combinations was used to test for significant differences indicating synergy or antagonism. The results presented in the Tables were significant according to the described criteria.
(§6) The following equation was used to calculate the expected activity of mixtures containing two active ingredients, A and B: Expected=A+B−(A×B/100) • A=observed efficacy of active ingredient A at the same concentration as used in the mixture; • B=observed efficacy of active ingredient B at the same concentration as used in the mixture.

[2] = tested on: Chenopodium album (common lambsquarters, CHEAL); assay: as above
Experimental: as §1, §2, §3, §4, §5, §6

[3] = tested on: Amaranthus rudis Sauer (common waterhemp, AMATA); assay: Postemergence herbicidal weed control, fluroxypyr-meptyl and chlorimuron-ethyl, field trials (Table 3)
Experimental: as §1, §2, §3, §4
(§7) Field trials were conducted using standard herbicide small plot research methodology. Plots varied from 3×3.3 meter (m) to 4.5×10 m (width×length) with 4 replicates per treatment. The crops used in the field trials were grown using normal cultural practices for land preparation, fertilization, seeding and maintenance to ensure good growth of the crop and the weeds.
(§8) All treatments in the field trials were applied using either pressurized air or carbon dioxide (CO2) backpack or bicycle sprayers calibrated to apply 100-187 L/ha spray volume. Flat Fan spray nozzles were used in all trials, with water as the diluent applied at 275-300 kilopascals (kPa). Weed sizes at application ranged from 10 to 40 cm tall. Commercially available products of fluroxypyr-meptyl (STARANE™, 180 and 333 g ae/L EC), diclosulam (SPIDER® 84WG), and thifensulfuron-methyl (HARMONY® 75WG) were mixed in water at appropriately formulated product rates to achieve the desired rates based on a unit area of application (hectare) to achieve the desired rates as shown. No adjuvants were tank-mixed with any treatments applied in the field trials. Treatments were rated at 14-26 days after application as compared to the untreated control plants. […]

[4] = tested on: Abutilon theophrasti (velvetleaf, ABUTH); assay: as above
Experimental: as §1, §2, §3, §4, §7, §8

[5] = tested on: Chenopodium album (common lambsquarters, CHEAL); assay: Postemergence herbicidal weed control, fluroxypyr-meptyl and cloransulam-methyl, field trials (Table 2)
Experimental: as §1, §2, §3, §4, §7
as §8, with “[…] Visual weed control was scored on a scale of 0” for “Treatments were rated at 14-26 days after application as compared”, “100 percent where 0 corresponds to no injury and 100 corresponds to complete kill.” for “the untreated control plants.”

[6] = tested on: Sida cordifolia L. (heartleaf sida, SIDCO); assay: Postemergence herbicidal weed control, fluroxypyr-meptyl and diclosulam, greenhouse trials (Table 1); settings: 14DAA1, 200 g ae/ha
Experimental: as §1
Treatments consisted of the compounds as listed in Tables 1 to 4, each compound applied alone and in combination. […]
Treatments were rated at 7 to 21 days after application (DAA) as compared to the untreated control plants. Visual weed control was scored on a scale of 0 to 100 percent where 0 corresponds to no injury and 100 corresponds to complete kill. […]

CCCCCCC(C)OC(=O)COc1nc(F)c(Cl)c(N)c1Cl (centres unmarked) [Fluroxypyr-meptyl, fluroxypyr-methylheptyl ester]
Fluroxypyr-meptyl Mean % weed control ([1]; 8DAA1, 50 g ae/ha): 60.0% | Fluroxypyr-meptyl Mean % weed control ([1]; 14DAA1, 50 g ae/ha): 43.8% | Fluroxypyr-meptyl Mean % weed control ([1]; 14DAA1, 100 g ae/ha): 37.5% | Fluroxypyr-meptyl Mean % weed control ([1]; 21DAA1, 50 g ae/ha): 37.5% | Fluroxypyr-meptyl Mean % weed control ([1]; 21DAA1, 100 g ae/ha): 38.8% | Fluroxypyr-meptyl Mean % weed control ([2]; 8DAA1, 50 g ae/ha): 43.3% | Fluroxypyr-meptyl Mean % weed control ([2]; 14DAA1, 50 g ae/ha): 20.0% | Fluroxypyr-meptyl Mean % weed control ([2]; 21DAA1, 50 g ae/ha): 18.3% | Fluroxypyr-meptyl Mean % weed control ([2]; 21DAA1, 100 g ae/ha): 21.0% | Fluroxypyr-meptyl Mean % weed control ([3]; 7DAA1, 25 g ae/ha): 25.0% | Fluroxypyr-meptyl Mean % weed control ([3]; 14DAA1, 25 g ae/ha): 7.5% | Fluroxypyr-meptyl Mean % weed control ([4]; 14DAA1, 50 g ae/ha): 67.0% | Fluroxypyr-meptyl Mean % weed control ([4]; 14DAA1, 100 g ae/ha): 80.8% | Fluroxypyr-meptyl Mean % weed control ([5]; 8DAA1, 25 g ae/ha): 33.3% | Fluroxypyr-meptyl Mean % weed control ([5]; 14DAA1, 25 g ae/ha): 10.0% | Fluroxypyr-meptyl Mean % weed control ([5]; 14DAA1, 100 g ae/ha): 33.3% | Fluroxypyr-meptyl Mean % weed control ([5]; 21DAA1, 25 g ae/ha): 18.3% | Fluroxypyr-meptyl Mean % weed control ([5]; 21DAA1, 50 g ae/ha): 18.3% | Fluroxypyr-meptyl Mean % weed control ([5]; 21DAA1, 100 g ae/ha): 21.0% | Fluroxypyr-meptyl Mean % weed control [6]: 30.0%
